Marks after values point to notes of the source that are not given here.
Assays:
VEGF = biological target: T1, VEGF (Homo sapiens, UniProt P15692); test: SPR based solution affinity assay, growth factor binding (VEGF); settings: heparin-coated sensorchip, HBS-EP buffer, 25° C.
T1 sequence (P15692 27-191 isoform P15692-4): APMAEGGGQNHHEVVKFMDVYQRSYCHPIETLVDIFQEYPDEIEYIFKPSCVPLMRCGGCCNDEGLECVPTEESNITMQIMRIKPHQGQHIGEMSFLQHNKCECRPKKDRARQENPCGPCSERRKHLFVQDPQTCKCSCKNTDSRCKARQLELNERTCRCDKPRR
Protocol: (§1) Binding affinities of ligands for the growth factors FGF-1, FGF-2 and VEGF were measured using a surface plasmon resonance (SPR) based solution affinity assay. The principle of the assay is that heparin immobilised on a sensorchip surface distinguishes between free and bound growth factor in an equilibrated solution of the growth factor and a ligand. Upon injection of the solution, the free growth factor binds to the immobilised heparin, is detected as an increase in the SPR response and its concentration thus determined. A decrease in the free growth factor concentration as a function of the ligand concentration allows for the calculation of the dissociation constant, Kd. It is important to note that ligand binding to the growth factors can only be detected when the interaction involves the HS binding site, thus eliminating the chance of evaluating non-specific binding to other sites on the protein. A 1:1 stoichiometry has been assumed for all protein:ligand interactions.
(§2) For the testing of growth factor binding activity, heparin-coated sensorchips were used. Their preparation, via immobilisation of biotinylated BSA-heparin on a streptavidin-coated sensorchip, has been described.[5] Heparin has also been immobilised via aldehyde coupling using either adipic acid dihydrazide or 1,4-diaminobutane. […] Ligands binding to FGF-1 and VEGF were measured in HBS-EP buffer (10 mM HEPES, pH 7.4, 150 mM NaCl, 3.0 mM EDTA and 0.005% (v/v) polysorbate 20), while binding to FGF-2 was measured in HBS-EP buffer containing 0.3 M NaCl.[5] […] For each assay mixture, 50-200 μL of solution was injected at 5-40 μL/min and the relative binding response measured. […]
(§3) Sensorgram data were analysed using the BIAevaluation software (BIAcore). […]
(§4) [formula] and the binding equation[5] can be expressed as
(§5) The Kd values given are the values fit, using the binding equation, to a plot of [P] versus [L]total. Where Kd values were measured in duplicate, the values represent the average of the duplicate measurements. […]

FGF-1 = FGF-1 (Homo sapiens, UniProt P05230); test: SPR based solution affinity assay, growth factor binding (FGF-1); settings: heparin-coated sensorchip, HBS-EP buffer, 25° C.; read-out: Kd aFGF
Protocol: as §1, §2, §3, §4, §5

heparanase = biological target: T2, heparanase (Homo sapiens, UniProt Q9Y251); test: Heparanase inhibition, Microcon ultrafiltration assay; assay type: biochemical; settings: 3H labelled HS, pH 5.0, 22° C., 2.5 h
T2 sequence (Q9Y251 158-543 limits assumed): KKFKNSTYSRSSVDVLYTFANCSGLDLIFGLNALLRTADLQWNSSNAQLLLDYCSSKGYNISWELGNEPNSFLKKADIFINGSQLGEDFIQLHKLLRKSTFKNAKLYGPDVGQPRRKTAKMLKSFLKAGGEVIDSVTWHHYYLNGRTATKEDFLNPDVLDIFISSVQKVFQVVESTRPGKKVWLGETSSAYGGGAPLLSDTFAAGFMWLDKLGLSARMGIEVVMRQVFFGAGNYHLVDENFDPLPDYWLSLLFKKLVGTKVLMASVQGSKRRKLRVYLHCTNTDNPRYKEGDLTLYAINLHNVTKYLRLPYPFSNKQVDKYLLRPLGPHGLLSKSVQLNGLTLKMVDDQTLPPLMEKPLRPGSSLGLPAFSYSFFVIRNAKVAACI
T2 sequence (Q9Y251 36-109 limits assumed): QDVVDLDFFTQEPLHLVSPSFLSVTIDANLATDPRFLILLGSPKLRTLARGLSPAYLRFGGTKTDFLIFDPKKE
Protocol: The heparanase assays were performed using a Microcon ultrafiltration assay. The assays rely on the principle of physically separating heparan sulfate (HS) that has been digested by heparanase from native HS to determine heparanase activity. The assay uses ultrafiltration devices (Microcon YM-10) to separate the smaller heparanase-cleaved HS fragments from native HS.
A reaction was set up with a volume of 90 μL, • 40 mM acetate buffer (pH 5.0) • 0.1 mg/mL BSA • 90 ng heparanase • 2.5 μM ^3H labelled HS • various concentrations of inhibitors.
The reactions were set up with all components except the ^3H labelled HS and allowed to equilibrate for 10 min at 22° C. The assays were then initiated by adding the HS and immediately 20 μL was taken, mixed with 80 μL of 10 mM phosphate (pH 7.0) and the 100 μL transferred to a Microcon YM-10 concentrator which was then centrifuged at approximately 14000 g for 5 min. The solution that passed through the membrane (filtrate) was retained. This sample was considered the time=0 sample. The assays (now 70 μL in volume) were allowed to react at 22° C. for 2.5 h and then the filtration step was repeated for three aliquots of 20 μL from each assay.
The time=0 filtrate and the three 2.5 h filtrate samples were counted for ^3H. The difference between the time=0 and the averaged 2.5 h samples gave the amount of heparanase activity. All inhibition assays were run with a heparanase standard assay which was identical to the assay composition above except no inhibitor was present and the amount of heparanase inhibition in the other assays determined by comparison with this standard.

FGF-2 = FGF-2 (Homo sapiens, UniProt P09038); test: SPR based solution affinity assay, growth factor binding (FGF-2); settings: heparin-coated sensorchip, HBS-EP buffer containing 0.3 M NaCl, 25° C.; read-out: Kd bFGF
Protocol: as §1, §2, §3, §4, §5

[1] = Pharmacokinetic studies of 35S-labelled compounds after iv administration; settings: rat; for Urinary Recovery: urine collected 0-48 h
Protocol: The polyol precursors for PG500, 501, 503, 504, 506 and PI-88 (2 mg of each) were desiccated under vacuum over P2O5 for 3 days. Into each vial was syringed 50 μL of a stock solution of 1.77 mg (2.0 mCi) of ^35SO3.pyridine complex and 2 mg SO3.Me3N in 300 μL of anhydrous DMF (Aldrich, redried over freshly ignited 3 A molecular sieves). A further 600 μL of anhydrous DMF was added to the SO3 vial and was distributed to each sample vial. The samples were heated to 60° for 66 hr. SO3.Me3N (14 mg in 300 μL anhydrous DMF) was added to each vessel and the resulting solutions were heated to 60° overnight. The vials were cooled to room temperature and stored at −80° C. awaiting purification.
Each sample was quenched by addition of Na2CO3 (sat. aqu. adjusted to pH 8-9), evaporated to dryness and subjected to SEC (Biogel P2, 2.6×90 cm, flow rate 30 mL/hr, 5 min/fraction). Fractions containing desired material were detected using a G-M counter and DMB test followed by CE.
Male Sprague Dawley rats (250-350 g) were used. The animals were allowed free access to food and water before and during the experiments, during which they were maintained unrestrained in metabolism cages. Rats were anaesthetized with isoflurane (Forthane®). A catheter was inserted in the external jugular vein via an incision in the neck, and was passed under the skin to a second incision in the skin of the back (midline vicinity of the scapulae). This was then exteriorized with the protection of a light metal spring. The incision was closed and the spring fixed to the skin with Michel sutures so that the rats had full range of movement. The animals were carefully monitored during recovery (1-4 h).
All doses were administered as a bolus intravenous injection of 2.5 mg/kg in a dose volume of 2 mL/kg. The total amount of radioactivity administered to each rat was 0.5-10 μCi. The dose level used in this study is 10-fold lower than the no-effect dose previously established for acute toxicity of PI-88. Blood samples (˜250 μL) were collected predose and at 5, 15, 30, 45 min, and 1, 1.5, 2, 4, 8, 12, 24, 36 and 48 h after dosing. The blood samples were immediately centrifuged and the plasma collected. At completion of the experiments, the animals were killed by a lethal overdose of IV pentobarbitone anaesthetic (Nembutal®). Urine was collected from each animal at intervals of 0-12 h, 12-24 h and 24-48 h after dosing. Cage washings (˜15 mL of deionised water) were also collected. At the end of the experiment, bladder contents were aspirated from each animal and added to the 24-48 h voidings. Feces were collected over the same time intervals as the urine.
Aliquots of plasma (100 μL), urine and cage washings (500 μL) were transferred directly to 6 mL polypropylene scintillation vials for determination of radioactivity. Feces collected during each time period (from one animal dosed with each compound) were weighed and homogenised in 4 volumes of deionised water using a mechanical homogeniser. Approximately 1 g (accurately weighed) of this slurry was transferred to a 20 mL glass scintillation vial, 2 mL of tissue solubiliser added and the vials capped and incubated at 60° C. for at least 24 h. Radioactivity was measured following mixing of samples with Packard Ultima Gold liquid scintillation counting cocktail (2.0 mL for plasma and dose, 5.0 mL for urine and cage washings, 10 mL for feces). Counting was conducted on a Packard Tr-Carb liquid scintillation counter. Any result less than three times the background was considered less than the lower limit of quantitation not used in calculations. Plasma, urine and cage washings were counted in triplicate within 5 days of collection and were not corrected for radiochemical decay. Feces were processed as a batch at the completion of the study and the counts from these samples were corrected for radiochemical decay.

[2] = test system: herpes simplex virus (HSV-1) KOS321 strain; test: Antiviral assay, HSV-1 infectivity (plaque forming units); assay type: cell-based; settings: African green monkey kidney cells; virus pre-incubated with compound 10 min
Text: (§6) In panel A, the results are expressed as a percentage of the number of viral plaque forming units (PFU) formed in cells infected with the compound-treated virions relative to mock-treated controls. In panel B, the results are expressed as a percentage of the average area of 20 viral plaques formed in the continuous presence of compound relative to mock-treated control cells. Monolayer cultures of African green monkey kidney cells[35] and herpes simplex virus (HSV-1) KOS321 strain[36] were used throughout. The antiviral assays on the compounds were performed as described by Nyberg et al.[13] Briefly, the effects of the compounds on the infection of cells by exogenously added virus were tested by mixing serial fivefold dilutions of compound (at 0.032-20 μM) with approximately 200 plaque forming units of the virus. Following incubation of the virus and compound for 10 min at room temperature, the mixture was added to the cells and left on the cell monolayer for 2 h at 37° C. Subsequently, the inoculum was aspirated and replaced with an overlay medium of 1% methylcellulose solution in Eagle's minimum essential medium (EMEM). The viral plaques that developed after incubation of cells for 3 days at 37° C. were stained with 1% crystal violet solution and counted. The effects of the compounds on cell-to-cell spread of HSV-1 were tested by adding serial fivefold dilutions of compound (at 0.032-20 μM) in the serum-free overlay medium to cells after their infection with HSV-1. After incubation of the compound with the cells for 3 days at 37° C., the images of 20 plaques were captured and subjected to area determination using IM500 software (Leica).

[3] = test system: herpes simplex virus (HSV-1) KOS321 strain; test: Antiviral assay, HSV-1 cell-to-cell spread (plaque area); assay type: cell-based; settings: African green monkey kidney cells; compound in overlay medium after infection, 3 days
Text: as §6

[4] = iv bolus 2.5 mg/kg, plasma radioactivity

Sequence of FGF-2 (P09038 143-288, species assumed): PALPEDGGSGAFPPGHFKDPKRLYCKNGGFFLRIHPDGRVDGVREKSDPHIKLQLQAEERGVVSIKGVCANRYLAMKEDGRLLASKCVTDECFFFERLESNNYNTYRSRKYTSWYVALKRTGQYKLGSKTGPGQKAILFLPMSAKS
Sequence of FGF-1 (P05230 whole entry, species assumed): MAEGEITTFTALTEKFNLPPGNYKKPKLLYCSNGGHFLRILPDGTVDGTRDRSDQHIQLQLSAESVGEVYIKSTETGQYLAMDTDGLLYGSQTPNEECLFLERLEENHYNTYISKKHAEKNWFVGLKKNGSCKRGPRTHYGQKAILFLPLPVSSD

Compound	Cl* (apparent) ([1]; iv bolus 2.5 mg/kg)	Vd* (apparent) ([1]; iv bolus 2.5 mg/kg)	k* (apparent) ([1]; iv bolus 2.5 mg/kg)	C0 [1, 4]	Urinary Recovery ([1]; iv bolus 2.5 mg/kg)	IC50 [3]	also measured
[N-]=[N+]=NC1OC(COS(=O)(=O)O)C(OC2OC(COS(=O)(=O)O)C(OC3OC(COS(=O)(=O)O)C(OC4OC(COS(=O)(=O)O)C(OC5OC(COS(=O)(=O)O)C(OC6OC(COS(=O)(=O)O)C(OS(=O)(=O)O)C(OS(=O)(=O)O)C6OS(=O)(=O)O)C(OS(=O)(=O)O)C5OS(=O)(=O)O)C(OS(=O)(=O)O)C4OS(=O)(=O)O)C(OS(=O)(=O)O)C3OS(=O)(=O)O)C(OS(=O)(=O)O)C2OS(=O)(=O)O)C(OS(=O)(=O)O)C1OS(=O)(=O)O (stereo not drawn) [PG505]	–	–	–	–	–	–	Kd (VEGF): 0.0048 ± 0.0004 µM; Kd (FGF-1): 0.00196 ± 0.0003 µM; IC50 (heparanase): 1.04 ± 0.147 µM; Kd (FGF-2): 0.137 ± 0.012 µM
PEG2000 Polysulfate [PG506]	404 ± 59.5^ mL/h/kg	44.5 ± 4.5^ mL	1.17 ± 0.024^ h^−1	17.1 ± 1.8^ μg-eq/mL	79.1 ± 3.6^ % dose	7 µM	AUC0-12 h, calculated over 0-8 h post dose interval only ([1]; iv bolus 2.5 mg/kg, 0-8 h post dose interval only): 6.2 ± 1.0^a μg-eq/h · mL; IC50 [2]: 10 µM
PEG5000 Polysulfate [PG504]	172 ± 11.8 mL/h/kg	24.9 ± 2.9 mL	0.247 ± 0.003 h⁻¹	30.5 ± 2.3 μg-eq/mL	66.5 ± 9.4 % dose	11 µM	AUC0-12 h [1, 4]: 14.7 ± 1.2 μg-eq/h · mL
PI-88 [reference compound]	–	–	–	–	–	–	AUC0-12 h ([1]; in vivo, iv, 2.5 mg/kg): 9.6 ± 1.9 μg-eq/h · mL; C0 ([1]; in vivo, iv, 2.5 mg/kg): 17.7 ± 2.23 μg-eq/mL; Cl* (apparent) ([1]; in vivo, iv, 2.5 mg/kg): 250 ± 27.6 mL/h/kg; Vd* (apparent) ([1]; in vivo, iv, 2.5 mg/kg): 43.1 ± 1.9 mL; t1/2* (apparent) ([1]; in vivo, iv, 2.5 mg/kg): 49.8 ± 5.4 min
